From patent US20230098254A1, “SCUTELLARIAE RADIX COMPOUNDS AND USE THEREOF FOR INHIBITING OXIDATIVE PHOSPHORYLATION PATHWAY OF MITOCHONDRIA” (priority 2020, published 2023) come the findings set out here.

Common to all, as to format: cell-based
In experiment [1] the test system is U-937. Briefly: Cell viability CellTiter-Glo, U-937. Conditions: Homo sapiens; U-937, lymphoma. On the procedure: (§1) Cell viability was measured by using the Promega CellTiter-Glo kit, the kit reflected cell viability by directly measuring intracellular ATP content. Different cancer cells were cultured in culture medium, and the 50% inhibitory concentration IC50 of the compound SJ2858 was measured by Promega CellTiter-Glo kit. The name source and culture condition of each tumor cell line were as follows:
Cell line U-937 (ATCC, No. CRL-1593.2) was cultured in RPMI1640 medium containing 10% fetal bovine serum (+P/S);
On the technique in general: In ATP-based viability assays light output follows the ATP content of the culture.

Experiment [2] relates to A-375. In words: Cell viability CellTiter-Glo, A-375. Conditions: Homo sapiens; A-375, melanoma. On the procedure:
as §1
Cell line A-375 (ATCC, No. CRL-1619) was cultured in DMEM medium containing 10% fetal bovine serum (+P/S);

The test system of experiment [3] is NCI-H1048. In words: Cell viability CellTiter-Glo, NCI-H1048. Conditions: Homo sapiens; NCI-H1048, lung cancer. On the procedure:
as §1
Cell line NCI-H1048 (ATCC, No. CRL-5853) was cultured in HITES medium containing 5% fetal bovine serum (+P/S);

For experiment [4], the system named is ATN-1. Briefly: Cell viability CellTiter-Glo, ATN-1. Conditions: Homo sapiens; ATN-1, leukemia. How it is done:
as §1
Cell line ATN-1 (RIKEN, No. RBRC-RCB1440) was cultured in RPMI1640 medium containing 10% fetal bovine serum and 0.1 mM NEAA (+P/S);

Experiment [5] concerns MIA PaCa-2. Briefly: Cell viability CellTiter-Glo, MIA PaCa-2. Conditions: Homo sapiens; MIA PaCa-2, pancreatic cancer. How it is done: as §1
Cell line MIA PaCa-2 (ATCC, No. CRL-1420) was cultured in DMEM medium containing 10% fetal bovine serum (+P/S);

For experiment [6], the system named is D283 Med. In words: Cell viability CellTiter-Glo, D283 Med. Conditions: Homo sapiens, brain cancer. On the procedure: as §1
Cell line D283 Med (ATCC, No. HTB-185) was cultured in EMEM medium containing 10% fetal bovine serum (+P/S);

For experiment [7], the system named is BT-549. In words: Cell viability CellTiter-Glo, BT-549. Conditions: Homo sapiens; BT-549, breast cancer. How it is done:
as §1
Cell line BT-549 (ATCC, No. HTB-122) was cultured in RPMI1640 medium containing 10% fetal bovine serum and 0.023 IU/ml human insulin (+P/S);

Experiment [8] has as its system 22RV1. Briefly: Cell viability CellTiter-Glo, 22RV1. Conditions: Homo sapiens; 22RV1, prostate cancer. On the procedure: as §1
Cell line 22RV1 (ATCC, No. CRL-2505) was cultured in RPMI1640 medium containing 10% fetal bovine serum (+P/S);

Experiment [9] relates to H9. In words: Cell viability CellTiter-Glo, H9. Conditions: Homo sapiens; H9, lymphoma. On the procedure: as §1
Cell line H9 (ATCC, No. HTB-176) was cultured in RPMI1640 medium containing 10% fetal bovine serum (+P/S);

Experiment [10] deals with OCI-LY-19. In words: Cell viability CellTiter-Glo, OCI-LY-19. Conditions: Homo sapiens, OCI-LY19; OCI-LY-19, lymphoma. How it is done:
as §1
Cell line OCI-LY-19 (DSMZ, code ACC-528) was cultured in 80-90% alpha-MEM medium containing 10-20% h.i. FBS (+P/S);

For experiment [11], the system named is SU-DHL-2. In words: Cell viability CellTiter-Glo, SU-DHL-2. Conditions: Homo sapiens; SU-DHL-2, lymphoma. How it is done:
as §1
Cell line SU-DHL-2 (ATCC, No. CRL-2956) was cultured in RPMI1640 medium containing 10% fetal bovine serum (+P/S);

For experiment [12], the system named is G-402. In words: Cell viability CellTiter-Glo, G-402. Conditions: Homo sapiens; G-402, kidney cancer. On the procedure:
as §1
Cell line G-402 (ATCC, No. CRL-1440) was cultured in McCoy's 5a medium containing 10% fetal bovine serum (+P/S);

Experiment [13] has as its system OCI-AML-3. Briefly: Cell viability CellTiter-Glo, OCI-AML-3. Conditions: Homo sapiens; OCI-AML-3, leukemia. How it is done:
as §1
Cell line OCI-AML-3 (DSMZ, No. ACC-582) was cultured in RPMI1640 medium containing 20% fetal bovine serum (+P/S);

Experiment [14] deals with LS 180. In words: Cell viability CellTiter-Glo, LS 180. Conditions: Homo sapiens, LS180; LS 180, intestinal cancer. On the procedure:
Cell viability was measured by using the Promega CellTiter-Glo kit, the kit reflected cell viability by directly measuring intracellular ATP content. Different cancer cells were cultured in culture medium, and the 50% inhibitory concentration IC50 of the compound SJ2858 was measured by Promega CellTiter-Glo kit. The name source and culture condition of each tumor cell line were as follows: […]

For experiment [15], the system named is GB-1. Briefly: Cell viability CellTiter-Glo, GB-1. Conditions: Homo sapiens; GB-1, brain cancer. How it is done:
as §1
Cell line GB-1 (JCRB, No. IFO50489) was cultured in DMEM medium containing 10% fetal bovine serum (+P/S);

Experiment [16] concerns 786-O. Briefly: Cell viability CellTiter-Glo, 786-O. Conditions: Homo sapiens, 786-0, kidney cancer. On the procedure: as §1
Cell line 786-O (ATCC, No. CRL-1932) was cultured in RPMI1640 medium containing 10% fetal bovine serum (+P/S);

Experiment [17] concerns COLO 320HSR. In words: Cell viability CellTiter-Glo, COLO 320HSR. Conditions: Homo sapiens, intestinal cancer. On the procedure: as §1
Cell line COLO 320HSR (ATCC, No. CCL-220.1) was cultured in RPMI1640 medium containing 10% fetal bovine serum (+P/S);

The test system of experiment [18] is SNU-449. Briefly: Cell viability CellTiter-Glo, SNU-449. Conditions: Homo sapiens; SNU-449, liver cancer. On the procedure:
as §1
Cell line SNU-449 (ATCC, No. CRL-2234) was cultured in RPMI1640 medium containing 10% fetal bovine serum (+P/S);

The subject of experiment [19] is NCI-H 1793. Briefly: Cell viability CellTiter-Glo, NCI-H 1793. Conditions: Homo sapiens, NCI-H1793; NCI-H 1793, lung cancer. On the procedure:
as §1
Cell line NCI-H1793 (ATCC, No. CRL-5896) was cultured in HITES medium containing 5% fetal bovine serum (+P/S);

Experiment [20] deals with DU 145. In words: Cell viability CellTiter-Glo, DU 145. Conditions: Homo sapiens; DU 145, prostate cancer. On the procedure:
as §1
Cell line DU 145 (ATCC, No. HTB-81) was cultured in EMEM medium containing 10% fetal bovine serum (+P/S);

Structures are written as SMILES.

Consider `O=c1cc(-c2ccccc2)oc2cc(O)c(O)c(O)c12` [Compound SJ2858, baicalein], for which the IC50 in experiment [1] came out at 39.2 µM; in [2] it was 10.6 µM; in [3], 15 µM; in experiment [4], 25.4 µM; in experiment [5], 19.7 µM; in [6], 12.9 µM. The IC50 in experiment [7] is 18.1 µM; in [8], 25.9 µM; in experiment [9], 19 µM; in experiment [10], 52.3 µM; in experiment [11], 6.2 µM; in experiment [12], 4.2 µM. For the same compound, the IC50 in experiment [13] was 62.3 µM; in experiment [14], 17.4 µM; in experiment [15], 12.4 µM; in experiment [16], 10.6 µM; in experiment [17] it was 17.8 µM; in experiment [18], 26.9 µM. Moreover, the results for the IC50 in experiment [19] and in experiment [20] were 35.2 µM and 37.8 µM, respectively.

What is called IC50 is the concentration needed to halve the response being measured. Low readings indicate inhibition by little substance, high ones a need for much substance.
